The source made the active and inactive calls.
Tests used:
[1] = target: T1, Voltage-gated N-type calcium channel alpha-1B subunit/Amyloid beta A4 precursor protein-binding family A member 1 (Homo sapiens, UniProt Q00975+Q02410); assay type: protein assay
[2] = target: T1, Voltage-gated N-type calcium channel alpha-1B subunit/Amyloid beta A4 precursor protein-binding family A member 1; experiment: disruptors of Mint-PDZ/N-type channel peptide interaction – biochemical, HTRF, SAR follow-up (AID 2489); assay type: functional
[3] = target: T1, Voltage-gated N-type calcium channel alpha-1B subunit/Amyloid beta A4 precursor protein-binding family A member 1; experiment: disruptors of Mint-PDZ/N-type channel peptide interaction – biochemical, HTRF, set 2, SAR follow-up (AID 434980); assay type: functional
[4] = target: T2, Glutathione-S-transferase (Schistosoma japonicum, UniProt Q26513); experiment: GST-antibody interaction or FRET quenching – biochemical, TR-FRET, artefact control for Vif-APOBEC3G degradation inhibitor project, dose response (AID 1117362); assay type: functional
T2 sequence (Q26513 whole entry): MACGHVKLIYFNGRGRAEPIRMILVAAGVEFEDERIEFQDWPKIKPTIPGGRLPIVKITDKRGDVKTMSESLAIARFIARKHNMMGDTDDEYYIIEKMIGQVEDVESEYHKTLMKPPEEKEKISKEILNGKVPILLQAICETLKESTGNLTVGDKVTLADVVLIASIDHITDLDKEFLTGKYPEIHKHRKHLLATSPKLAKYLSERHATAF

[5] = target: Troponin, cardiac muscle (Homo sapiens, UniProt P19429+P45379+P63316); experiment: compounds desensitizing RTF to calcium – biochemical, fluorescence, cardiac regulated thin filaments, triplicate IC50, dose response (AID 504742); assay type: protein-complex assay
[6] = target: T3, Lysine-specific demethylase 4A (Homo sapiens, UniProt O75164); experiment: inhibition of JMJD2A H3K9me3 demethylation – biochemical, DELFIA europium, cherry-picked samples, selectivity assay for GASC-1 inhibitor project, dose response (AID 488840)
T3 sequence (O75164 whole entry): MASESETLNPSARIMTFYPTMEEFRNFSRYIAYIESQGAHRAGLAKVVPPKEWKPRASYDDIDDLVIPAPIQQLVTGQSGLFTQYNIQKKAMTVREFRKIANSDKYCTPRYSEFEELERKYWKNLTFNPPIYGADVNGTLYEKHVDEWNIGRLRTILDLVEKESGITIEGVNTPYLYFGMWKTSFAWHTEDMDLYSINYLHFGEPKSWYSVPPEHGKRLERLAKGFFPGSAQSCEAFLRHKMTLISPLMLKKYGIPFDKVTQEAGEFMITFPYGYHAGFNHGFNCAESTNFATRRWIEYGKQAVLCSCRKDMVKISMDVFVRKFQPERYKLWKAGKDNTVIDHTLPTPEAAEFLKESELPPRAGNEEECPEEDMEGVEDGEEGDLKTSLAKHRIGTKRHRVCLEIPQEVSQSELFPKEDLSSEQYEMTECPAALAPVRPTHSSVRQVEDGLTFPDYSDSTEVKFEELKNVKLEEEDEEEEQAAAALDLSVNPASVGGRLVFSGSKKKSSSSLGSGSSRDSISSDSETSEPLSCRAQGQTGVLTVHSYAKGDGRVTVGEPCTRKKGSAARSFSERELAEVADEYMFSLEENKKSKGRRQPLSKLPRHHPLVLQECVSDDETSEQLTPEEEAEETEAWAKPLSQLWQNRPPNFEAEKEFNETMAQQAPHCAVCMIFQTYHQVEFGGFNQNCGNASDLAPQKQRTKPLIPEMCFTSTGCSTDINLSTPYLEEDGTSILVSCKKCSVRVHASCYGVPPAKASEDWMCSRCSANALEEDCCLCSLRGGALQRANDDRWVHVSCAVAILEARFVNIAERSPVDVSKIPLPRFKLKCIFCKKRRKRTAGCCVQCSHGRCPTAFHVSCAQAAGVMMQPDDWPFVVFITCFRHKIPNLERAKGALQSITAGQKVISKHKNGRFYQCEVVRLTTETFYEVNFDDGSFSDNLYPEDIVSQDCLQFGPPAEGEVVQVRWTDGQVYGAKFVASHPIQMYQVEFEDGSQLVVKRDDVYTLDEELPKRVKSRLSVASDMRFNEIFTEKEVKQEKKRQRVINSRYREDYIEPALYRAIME

[7] = target: Lysine-specific demethylase 4C (Homo sapiens, UniProt Q9H3R0); experiment: inhibition of JMJD2C H3K9me3 demethylation – biochemical, DELFIA europium, cherry-picked samples, dose response (AID 488835); assay type: functional
[8] = target: NS3 (Hepatitis C virus, UniProt A3EZJ3); experiment: PubChem AID 2173; design: species or system Hepacivirus hominis
[9] = target: T1, Voltage-gated N-type calcium channel alpha-1B subunit/Amyloid beta A4 precursor protein-binding family A member 1; assay type: protein assay; remark: listed apart in the source
[10] = target: CAAX prenyl protease 1 (Saccharomyces cerevisiae S288c, UniProt P47154); experiment: yeast CAAX protease Ste24 inhibition – biochemical, S. cerevisiae, plate reader, cherry-pick, dose response (AID 488815)
[11] = target: T4, Short transient receptor potential channel 4 (Mus musculus, UniProt Q9QUQ5); experiment: block of DAMGO-driven TRPC4 calcium entry – cell-based, HEK293 TRPC4/mu-opioid, Fluo-4 calcium, dose response (AID 434942); assay type: functional;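 also: potency of inhibitors blocking the TRPC4 calcium response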
T4 sequence (Q9QUQ5 whole entry): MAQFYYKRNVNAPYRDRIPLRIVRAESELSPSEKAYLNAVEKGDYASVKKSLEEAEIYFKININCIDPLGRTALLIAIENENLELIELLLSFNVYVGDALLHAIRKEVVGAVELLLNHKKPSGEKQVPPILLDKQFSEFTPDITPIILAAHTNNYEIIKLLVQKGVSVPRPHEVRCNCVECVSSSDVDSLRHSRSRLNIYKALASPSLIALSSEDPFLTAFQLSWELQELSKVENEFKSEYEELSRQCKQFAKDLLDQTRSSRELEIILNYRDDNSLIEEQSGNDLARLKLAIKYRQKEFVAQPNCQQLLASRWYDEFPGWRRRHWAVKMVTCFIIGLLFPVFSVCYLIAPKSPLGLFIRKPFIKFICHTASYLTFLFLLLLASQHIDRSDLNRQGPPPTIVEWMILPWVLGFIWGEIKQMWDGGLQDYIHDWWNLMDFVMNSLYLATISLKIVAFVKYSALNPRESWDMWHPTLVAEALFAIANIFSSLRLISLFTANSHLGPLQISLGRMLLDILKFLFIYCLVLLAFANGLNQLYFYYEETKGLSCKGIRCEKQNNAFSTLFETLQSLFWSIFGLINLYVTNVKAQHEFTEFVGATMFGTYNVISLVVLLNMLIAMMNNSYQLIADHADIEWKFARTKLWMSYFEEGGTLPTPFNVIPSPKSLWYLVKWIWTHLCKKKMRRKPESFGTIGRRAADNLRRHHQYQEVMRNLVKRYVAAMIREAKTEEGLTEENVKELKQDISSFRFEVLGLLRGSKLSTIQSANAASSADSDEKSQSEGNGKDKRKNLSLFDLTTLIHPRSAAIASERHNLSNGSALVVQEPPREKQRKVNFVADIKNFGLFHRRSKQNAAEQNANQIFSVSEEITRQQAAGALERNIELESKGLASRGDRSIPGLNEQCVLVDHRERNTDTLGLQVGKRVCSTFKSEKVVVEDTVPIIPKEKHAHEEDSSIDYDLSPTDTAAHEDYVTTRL

[12] = target: T5, CAAX prenyl protease 2 (Saccharomyces cerevisiae S288c, UniProt Q03530); assay type: biochemical
T5 sequence (Q03530 whole entry): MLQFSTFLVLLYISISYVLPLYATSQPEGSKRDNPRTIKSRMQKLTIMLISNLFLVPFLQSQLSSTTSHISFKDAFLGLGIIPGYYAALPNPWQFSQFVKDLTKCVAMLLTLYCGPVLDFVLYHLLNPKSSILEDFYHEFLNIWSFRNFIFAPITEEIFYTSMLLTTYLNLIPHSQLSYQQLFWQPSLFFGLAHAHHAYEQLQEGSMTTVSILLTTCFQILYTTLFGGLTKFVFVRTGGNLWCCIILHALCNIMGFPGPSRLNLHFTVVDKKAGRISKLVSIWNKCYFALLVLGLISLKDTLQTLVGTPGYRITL

[13] = target: T4, Short transient receptor potential channel 4; experiment: calcium entry via TRPC4 opening agents – cell-based, HEK293 TRPC4/mu-opioid, Fluo-4 calcium, dose response (AID 434937); assay type: functional
[14] = target: T6, Zinc finger protein mex-5 (Caenorhabditis elegans, UniProt Q9XUB2); experiment: potency of MEX-5 RNA-binding blockers – biochemical, C. elegans, fluorescence polarization, dose response (AID 1960)
T6 sequence (Q9XUB2 whole entry): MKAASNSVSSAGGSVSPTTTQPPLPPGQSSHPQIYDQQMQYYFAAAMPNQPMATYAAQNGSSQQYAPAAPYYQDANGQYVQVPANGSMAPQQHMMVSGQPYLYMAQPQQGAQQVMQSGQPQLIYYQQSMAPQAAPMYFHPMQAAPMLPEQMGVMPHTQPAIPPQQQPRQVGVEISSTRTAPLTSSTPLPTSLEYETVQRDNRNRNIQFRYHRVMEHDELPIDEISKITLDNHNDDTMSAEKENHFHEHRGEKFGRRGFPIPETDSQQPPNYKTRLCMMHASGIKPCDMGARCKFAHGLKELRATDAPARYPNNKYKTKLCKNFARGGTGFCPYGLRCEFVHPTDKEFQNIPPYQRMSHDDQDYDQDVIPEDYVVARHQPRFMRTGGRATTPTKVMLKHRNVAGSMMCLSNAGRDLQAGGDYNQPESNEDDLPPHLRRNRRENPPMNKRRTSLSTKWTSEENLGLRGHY

[15] = target: T7, Endoribonuclease toxin MazF (Escherichia coli K-12, UniProt P0AE70); experiment: substrate-only fluorescence increase artefacts – biochemical, single-stranded RNase substrate, counter-screen for MazEF activator project, dose response (AID 588502); assay type: functional
T7 sequence (P0AE70 whole entry): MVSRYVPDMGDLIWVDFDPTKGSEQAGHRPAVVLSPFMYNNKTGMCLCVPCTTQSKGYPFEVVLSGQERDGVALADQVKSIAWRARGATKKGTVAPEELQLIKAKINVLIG

[16] = target: T7, Endoribonuclease toxin MazF; experiment: activation of MazEF endoribonuclease cleavage – biochemical, fluorescence, single-stranded RNA substrate, uHTS hits, dose response (AID 588481); assay type: functional
[17] = target: T8, RNA-binding protein pos-1 (Caenorhabditis elegans, UniProt G5EF15); experiment: disruptors of C. elegans POS-1 RNA interaction – biochemical, fluorescence polarization, dose response (AID 1964);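 also: purified POS-1 fused to maltose binding protein made in E. coli; potency of compounds blocking POS-1 binding to fluorescent RNA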
T8 sequence (G5EF15 whole entry): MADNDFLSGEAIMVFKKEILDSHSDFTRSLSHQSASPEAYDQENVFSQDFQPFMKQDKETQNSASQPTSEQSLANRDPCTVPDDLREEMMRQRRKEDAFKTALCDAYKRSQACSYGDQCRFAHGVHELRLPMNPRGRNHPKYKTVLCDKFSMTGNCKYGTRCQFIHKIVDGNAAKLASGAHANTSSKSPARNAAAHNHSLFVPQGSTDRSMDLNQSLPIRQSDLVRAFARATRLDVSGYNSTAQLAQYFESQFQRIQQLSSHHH

[18] = target: UDP-galactopyranose mutase (Mycobacterium tuberculosis, UniProt P9WIQ1); experiment: Inhibitors of Mycobacterium tuberculosis UDP-galactopyranose mutase (UGM) enzyme Measured in Biochemical System Using Plate Reader - 2105-02_Inhibitor_Dose_CherryPick_Activity. [Related pubchem assays (depositor defined):AID504439]
[19] = target: T9, Corticotropin-releasing factor receptor 2/Corticotropin-releasing factor-binding protein (Homo sapiens, UniProt P24387+Q13324); experiment: activators of CRF receptor 2 with binding protein – uHTS hits, confirmation (AID 602473); assay type: functional; settings: read-out: EC50_Mean
T9 sequence (Q13324 whole entry): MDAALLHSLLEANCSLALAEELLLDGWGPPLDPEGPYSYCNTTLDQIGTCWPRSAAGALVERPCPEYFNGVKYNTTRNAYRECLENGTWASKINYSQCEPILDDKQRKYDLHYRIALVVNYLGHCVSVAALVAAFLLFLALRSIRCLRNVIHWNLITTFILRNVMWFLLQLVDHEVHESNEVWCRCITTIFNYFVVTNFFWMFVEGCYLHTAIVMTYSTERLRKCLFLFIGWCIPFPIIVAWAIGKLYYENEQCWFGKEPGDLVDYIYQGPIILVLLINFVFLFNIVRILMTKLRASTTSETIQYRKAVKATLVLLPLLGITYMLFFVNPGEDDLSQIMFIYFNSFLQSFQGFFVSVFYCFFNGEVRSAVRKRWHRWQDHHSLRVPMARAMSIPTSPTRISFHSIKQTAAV
T9 sequence (P24387 whole entry): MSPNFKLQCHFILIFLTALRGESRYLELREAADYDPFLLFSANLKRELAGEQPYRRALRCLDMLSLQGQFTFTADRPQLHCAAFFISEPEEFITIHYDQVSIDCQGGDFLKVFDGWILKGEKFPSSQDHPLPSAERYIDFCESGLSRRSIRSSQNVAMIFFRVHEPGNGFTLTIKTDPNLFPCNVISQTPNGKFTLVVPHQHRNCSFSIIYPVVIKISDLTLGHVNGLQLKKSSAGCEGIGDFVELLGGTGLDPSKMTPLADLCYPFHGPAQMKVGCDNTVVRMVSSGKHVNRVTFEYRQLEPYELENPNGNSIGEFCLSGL

[20] = T. cruzi infection blockers in NIH3T3 cells – beta-gal luminescence, NIH3T3 host cells, confirmation (AID 2630); assay type: functional, cell-based; settings: Mus musculus

T1 sequence (Q00975 whole entry): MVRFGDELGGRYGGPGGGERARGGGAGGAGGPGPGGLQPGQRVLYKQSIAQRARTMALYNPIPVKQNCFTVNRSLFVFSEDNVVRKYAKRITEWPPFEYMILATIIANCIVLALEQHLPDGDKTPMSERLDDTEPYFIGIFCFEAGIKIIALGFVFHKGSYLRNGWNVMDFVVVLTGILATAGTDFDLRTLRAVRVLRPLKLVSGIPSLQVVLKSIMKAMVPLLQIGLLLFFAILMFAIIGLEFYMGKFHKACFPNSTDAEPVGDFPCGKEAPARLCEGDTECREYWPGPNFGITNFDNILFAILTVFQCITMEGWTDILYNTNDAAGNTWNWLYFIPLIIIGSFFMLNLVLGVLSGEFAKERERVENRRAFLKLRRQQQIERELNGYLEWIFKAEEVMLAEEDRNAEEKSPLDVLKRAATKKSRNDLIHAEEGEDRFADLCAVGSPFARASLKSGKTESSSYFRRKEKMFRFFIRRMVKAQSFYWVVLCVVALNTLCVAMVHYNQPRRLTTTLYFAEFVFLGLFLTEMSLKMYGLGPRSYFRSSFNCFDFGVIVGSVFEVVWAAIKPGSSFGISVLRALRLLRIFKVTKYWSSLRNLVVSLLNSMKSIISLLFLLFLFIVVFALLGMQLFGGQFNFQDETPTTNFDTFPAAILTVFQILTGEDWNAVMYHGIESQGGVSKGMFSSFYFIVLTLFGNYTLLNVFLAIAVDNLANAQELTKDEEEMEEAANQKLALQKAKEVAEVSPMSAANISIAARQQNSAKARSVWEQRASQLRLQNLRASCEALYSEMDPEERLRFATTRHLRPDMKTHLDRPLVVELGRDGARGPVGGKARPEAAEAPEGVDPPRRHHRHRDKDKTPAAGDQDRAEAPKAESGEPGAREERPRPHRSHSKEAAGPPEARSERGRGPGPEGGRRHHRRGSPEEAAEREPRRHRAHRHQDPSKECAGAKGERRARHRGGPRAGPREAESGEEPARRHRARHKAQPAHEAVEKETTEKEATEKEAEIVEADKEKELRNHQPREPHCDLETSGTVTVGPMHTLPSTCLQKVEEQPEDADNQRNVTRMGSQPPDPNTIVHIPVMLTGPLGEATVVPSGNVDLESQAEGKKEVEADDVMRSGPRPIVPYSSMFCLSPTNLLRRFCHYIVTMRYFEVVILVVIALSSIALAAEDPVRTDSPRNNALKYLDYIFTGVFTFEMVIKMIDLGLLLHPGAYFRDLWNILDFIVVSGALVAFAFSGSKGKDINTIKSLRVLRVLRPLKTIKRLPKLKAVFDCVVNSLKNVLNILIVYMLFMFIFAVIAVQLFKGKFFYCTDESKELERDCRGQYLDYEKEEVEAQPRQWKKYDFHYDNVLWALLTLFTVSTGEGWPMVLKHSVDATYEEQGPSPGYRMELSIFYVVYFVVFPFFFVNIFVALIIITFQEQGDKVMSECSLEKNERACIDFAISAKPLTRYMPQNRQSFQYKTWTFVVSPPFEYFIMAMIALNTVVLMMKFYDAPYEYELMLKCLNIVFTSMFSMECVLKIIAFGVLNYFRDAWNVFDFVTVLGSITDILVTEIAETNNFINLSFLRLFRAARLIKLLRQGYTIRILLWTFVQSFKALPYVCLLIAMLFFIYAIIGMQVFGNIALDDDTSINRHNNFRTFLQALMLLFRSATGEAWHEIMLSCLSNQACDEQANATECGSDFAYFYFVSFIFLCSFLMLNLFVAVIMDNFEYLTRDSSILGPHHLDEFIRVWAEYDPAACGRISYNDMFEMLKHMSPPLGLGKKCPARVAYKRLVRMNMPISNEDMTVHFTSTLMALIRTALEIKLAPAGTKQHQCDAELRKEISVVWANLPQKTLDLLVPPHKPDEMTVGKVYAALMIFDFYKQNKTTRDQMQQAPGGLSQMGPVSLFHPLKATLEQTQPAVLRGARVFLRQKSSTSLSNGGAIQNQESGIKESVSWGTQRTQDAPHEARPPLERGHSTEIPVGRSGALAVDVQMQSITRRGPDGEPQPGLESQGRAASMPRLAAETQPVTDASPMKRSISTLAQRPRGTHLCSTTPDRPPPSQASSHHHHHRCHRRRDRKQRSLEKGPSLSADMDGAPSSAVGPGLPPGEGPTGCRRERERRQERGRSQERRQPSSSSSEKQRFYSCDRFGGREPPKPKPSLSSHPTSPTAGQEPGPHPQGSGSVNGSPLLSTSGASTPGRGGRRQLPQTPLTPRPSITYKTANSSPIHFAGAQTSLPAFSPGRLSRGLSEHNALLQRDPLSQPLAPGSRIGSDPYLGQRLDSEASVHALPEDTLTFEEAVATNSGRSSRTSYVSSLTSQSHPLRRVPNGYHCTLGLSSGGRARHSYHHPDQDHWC
T1 sequence (Q02410 whole entry): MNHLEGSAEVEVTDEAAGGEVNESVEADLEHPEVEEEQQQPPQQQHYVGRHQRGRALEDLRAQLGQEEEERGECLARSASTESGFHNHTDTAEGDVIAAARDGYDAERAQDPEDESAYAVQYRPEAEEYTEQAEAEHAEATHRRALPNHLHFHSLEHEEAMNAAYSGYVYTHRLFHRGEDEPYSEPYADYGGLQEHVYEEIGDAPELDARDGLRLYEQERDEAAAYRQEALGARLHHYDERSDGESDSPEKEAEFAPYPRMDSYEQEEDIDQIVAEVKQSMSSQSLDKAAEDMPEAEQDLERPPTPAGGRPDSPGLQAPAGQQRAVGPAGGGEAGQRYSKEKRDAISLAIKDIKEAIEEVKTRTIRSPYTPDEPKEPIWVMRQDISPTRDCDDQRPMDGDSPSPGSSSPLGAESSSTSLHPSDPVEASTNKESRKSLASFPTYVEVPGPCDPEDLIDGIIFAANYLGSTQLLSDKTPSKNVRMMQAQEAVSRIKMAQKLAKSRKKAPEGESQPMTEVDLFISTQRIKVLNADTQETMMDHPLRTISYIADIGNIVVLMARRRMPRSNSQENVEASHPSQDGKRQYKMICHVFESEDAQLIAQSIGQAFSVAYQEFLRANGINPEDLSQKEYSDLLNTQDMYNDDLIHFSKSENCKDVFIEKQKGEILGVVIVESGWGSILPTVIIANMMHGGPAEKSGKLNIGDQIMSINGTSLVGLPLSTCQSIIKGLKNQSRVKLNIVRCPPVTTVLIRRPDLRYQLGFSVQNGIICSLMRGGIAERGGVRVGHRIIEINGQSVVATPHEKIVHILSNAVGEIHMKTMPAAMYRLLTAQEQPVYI
NS3, sequence (A3EZJ3 whole entry): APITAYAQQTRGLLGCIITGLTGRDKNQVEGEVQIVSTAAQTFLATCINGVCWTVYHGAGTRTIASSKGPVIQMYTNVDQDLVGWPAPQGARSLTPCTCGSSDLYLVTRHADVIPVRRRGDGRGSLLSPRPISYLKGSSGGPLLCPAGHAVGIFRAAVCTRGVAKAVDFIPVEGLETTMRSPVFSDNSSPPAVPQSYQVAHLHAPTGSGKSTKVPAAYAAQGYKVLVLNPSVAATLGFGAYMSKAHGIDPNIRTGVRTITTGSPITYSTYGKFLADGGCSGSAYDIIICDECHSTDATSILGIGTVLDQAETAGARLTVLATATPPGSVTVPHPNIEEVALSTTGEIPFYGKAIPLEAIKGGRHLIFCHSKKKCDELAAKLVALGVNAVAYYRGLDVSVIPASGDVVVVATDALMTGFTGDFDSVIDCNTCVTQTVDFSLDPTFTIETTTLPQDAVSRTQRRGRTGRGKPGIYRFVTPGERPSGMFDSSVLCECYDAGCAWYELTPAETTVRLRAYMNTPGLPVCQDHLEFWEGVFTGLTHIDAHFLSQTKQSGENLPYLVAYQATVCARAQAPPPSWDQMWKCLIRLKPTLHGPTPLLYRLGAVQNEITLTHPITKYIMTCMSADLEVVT
Lysine-specific demethylase 4C, sequence (Q9H3R0 whole entry): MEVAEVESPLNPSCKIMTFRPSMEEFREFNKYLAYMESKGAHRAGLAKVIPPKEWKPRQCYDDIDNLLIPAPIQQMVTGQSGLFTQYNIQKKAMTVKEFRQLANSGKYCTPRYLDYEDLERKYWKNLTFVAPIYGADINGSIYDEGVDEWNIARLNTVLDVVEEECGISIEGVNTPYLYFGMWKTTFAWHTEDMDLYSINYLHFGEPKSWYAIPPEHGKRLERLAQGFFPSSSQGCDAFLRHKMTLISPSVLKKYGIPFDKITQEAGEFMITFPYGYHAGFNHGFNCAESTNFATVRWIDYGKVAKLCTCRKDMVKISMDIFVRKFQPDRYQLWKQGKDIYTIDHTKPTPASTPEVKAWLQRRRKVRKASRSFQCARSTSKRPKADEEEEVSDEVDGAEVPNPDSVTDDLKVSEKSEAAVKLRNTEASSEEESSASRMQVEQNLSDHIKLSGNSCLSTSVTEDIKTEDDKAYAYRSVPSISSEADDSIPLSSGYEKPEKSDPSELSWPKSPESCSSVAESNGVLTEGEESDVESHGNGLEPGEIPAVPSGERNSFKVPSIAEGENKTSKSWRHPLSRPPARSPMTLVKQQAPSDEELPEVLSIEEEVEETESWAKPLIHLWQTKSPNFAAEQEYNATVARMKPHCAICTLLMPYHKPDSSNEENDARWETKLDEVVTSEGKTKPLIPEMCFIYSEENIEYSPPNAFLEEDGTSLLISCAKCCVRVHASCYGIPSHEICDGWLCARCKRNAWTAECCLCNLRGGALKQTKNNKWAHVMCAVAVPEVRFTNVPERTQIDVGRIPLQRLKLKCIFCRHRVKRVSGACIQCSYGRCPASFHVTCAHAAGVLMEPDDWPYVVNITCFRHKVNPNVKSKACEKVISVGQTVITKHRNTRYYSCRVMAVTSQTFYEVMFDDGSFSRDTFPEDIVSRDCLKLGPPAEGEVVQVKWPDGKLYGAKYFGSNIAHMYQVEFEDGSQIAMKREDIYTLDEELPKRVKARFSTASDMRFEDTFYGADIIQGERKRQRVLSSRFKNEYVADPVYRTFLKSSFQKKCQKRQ

## Nc1c(C(=O)NC2CC2)sc2nc3c(c(-c4ccco4)c12)CC/C3=C/c1ccco1
[1]
  IC50: 13.1 µM (active)
[2]
  IC50: 17.2 µM (active)
[3]
  IC50: 1.04 µM (active)
[4]
  IC50: 54 µM (active)
[5]
  IC50: > 71.5 µM (inactive)
[6]
  AC50: 6.07 µM (active)
[7]
  AC50: 4.71 µM (active)
[8]
  IC50: 5.48 µM (active)
[9]
  IC50: 3.99 µM (active)

## O=C(C[n+]1cc2ccccc2c2ccccc21)c1ccccc1
[10]
  AC50: 10.2 µM (active)
[11]
  EC50: 3.76 µM (active)
[12]
  AC50: 5.91 µM (active)
[13]
  EC50: 4.22 µM (active)

## COc1ccc2nc3ccccc3nc2c1NC(=O)c1ccc(Cl)cc1Cl
[14]
  EC50: 3.71 µM (inconclusive)
[15]
  EC50: 27.6 µM (inactive)
[16]
  EC50: > 99 µM (inactive)
[17]
  EC50: 3.15 µM (inconclusive)
[18]
  AC50: 171 µM (active)
[19]
  EC50: 6.99 µM (active)

## Cc1ccc(NC(=O)CCC(=O)N/N=C/c2ccco2)c(C)c1
[20]
  EC50: 195 µM (inactive)

From ChEMBL document CHEMBL1201862, “PubChem BioAssay data set” (2004)
